Data published in patent publication US11584744B2 (UNIVERSITY OF WASHINGTON, priority 2017, dated 2023).
In brackets after ≈: the same amount, converted by molar mass. Like-named read-outs stand apart in the source and are kept apart here.

How the values were obtained:
[1] = target: T1, MetRS (T. brucei) (Trypanosoma brucei brucei, UniProt Q38C91); test: MetRS (T. brucei) enzyme inhibition; type: biochemical
T1 sequence (Q38C91 1-773): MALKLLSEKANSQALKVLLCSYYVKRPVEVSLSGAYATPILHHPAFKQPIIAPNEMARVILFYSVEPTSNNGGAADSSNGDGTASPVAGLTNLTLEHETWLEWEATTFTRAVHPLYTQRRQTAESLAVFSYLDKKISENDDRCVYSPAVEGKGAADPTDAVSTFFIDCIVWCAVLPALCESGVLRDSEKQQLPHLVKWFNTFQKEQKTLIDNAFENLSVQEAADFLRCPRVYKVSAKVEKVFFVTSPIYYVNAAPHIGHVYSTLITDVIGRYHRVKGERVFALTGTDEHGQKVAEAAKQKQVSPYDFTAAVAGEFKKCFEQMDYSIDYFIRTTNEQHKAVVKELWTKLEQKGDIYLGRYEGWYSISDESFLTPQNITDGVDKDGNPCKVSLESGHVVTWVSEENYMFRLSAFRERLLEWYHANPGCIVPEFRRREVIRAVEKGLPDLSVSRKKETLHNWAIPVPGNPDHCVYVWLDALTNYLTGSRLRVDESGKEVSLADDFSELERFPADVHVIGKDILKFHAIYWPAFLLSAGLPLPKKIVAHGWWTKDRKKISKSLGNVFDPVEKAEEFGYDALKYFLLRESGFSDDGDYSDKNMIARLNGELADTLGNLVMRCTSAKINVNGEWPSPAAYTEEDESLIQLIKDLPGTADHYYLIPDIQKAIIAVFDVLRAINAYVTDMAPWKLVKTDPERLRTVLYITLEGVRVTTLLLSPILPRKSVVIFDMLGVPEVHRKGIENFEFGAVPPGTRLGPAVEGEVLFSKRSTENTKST

[2] = tested on: T. cruzi; test: T. cruzi growth inhibition; type: cell-based, Trypanosoma cruzi; conditions: read-out: (E) T. cruzi EC50
[3] = tested on: S. aureus MSSA (ATCC 29213); test: MIC susceptibility testing; type: cell-based, Staphylococcus aureus; conditions: S. aureus ATCC 29213; for MIC: Staphylococcus aureus, read-out: (F) S. aureus (ATCC 29213) MIC
[4] = tested on: S. aureus MRSA (ATCC 33591); test: MIC susceptibility testing; type: cell-based, Staphylococcus aureus; conditions: Staphylococcus aureus, MRSA ATCC33591; read-out: (G) MRSA (ATCC33591) MIC
Method in brief: (§1)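 CLSI broth microdilution in triplicate, 5×10^5 CFU/mL final, ≤0.5% DMSO; MHB for S. aureus, CA-MHB for E. coli and E. faecium, CA-MHB plus 3% laked horse blood for S. pyogenes (5% CO2).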

[5] = tested on: T. brucei; test: T. brucei growth inhibition; type: cell-based, Trypanosoma brucei; conditions: read-out: (D) T. brucei EC50
[6] = tested on: E. faecium VRE (ATCC 51559); test: MIC susceptibility testing; type: cell-based, Enterococcus faecium; conditions: Enterococcus faecium, E. faecium ATCC 51559; read-out: (I) E. faecium (ATCC 51559) MIC
Method in brief: as §1

[7] = target: recombinant S. aureus MetRS enzyme (Staphylococcus aureus, UniProt A0A0H2XID2); test: Inhibition of SaMetRS, ATP depletion assay; type: biochemical; conditions: read-out: (B) MetRS (S. aureus) IC50
Procedure: Production of recombinant S. aureus MetRSs. The SaMetRS gene (UniProtKB—A0A0H2XID2) was PCR amplified (Sense 5′-[…]-3′ (SEQ ID NO: 1) and Antisense 5′-[…]-3′ (SEQ ID NO:2)) from genomic DNA isolated from S. aureus (ATCC 29213) cultures. The PCR product was then cloned into the AVA0421 plasmid and sequence verified. The expression of recombinant protein was performed as previously described. The N-terminal 6-His fusion proteins were purified by nickel affinity chromatography followed by size exclusion gel chromatography (Superdex 75 26/60; GE Biosciences, Piscataway, N.J.).
Enzyme assays. Inhibition of SaMetRS was measured using the ATP depletion assay as previously described with some modifications. Compounds were pre-incubated for 15 minutes at room temperature in a 96-well plate with 400 μg/mL bulk E. coli tRNA, 25 nM SaMetRS, 0.1 U/mL pyrophosphatase, 0.2 mM spermine, 0.1 mg/mL bovine serum albumin, 2.5 mM dithiothreitol, 25 mM HEPES-KOH pH 7.9, 10 mM MgCl2, 50 mM KCl, and 2% DMSO. Reagents were purchased from Sigma-Aldrich or Roche. The reaction was started with the addition of 150 nM ATP and 20 μM L-methionine and after 120 minute incubation was stopped by the addition of an equal volume (50 μL) of Kinase-Glo® (Promega). Percent inhibition=100×(test compound−AVG low control)/(AVG high control−AVG low control) where the low control is all reagents except the compound and the high control is all reagents except the compounds and L-methionine. IC50 values were calculated by non-linear regression, sigmoidal-dose response, in Prism 3.0.

[8] = target: MetRS (C. parvum) (Cryptosporidium parvum, UniProt Q5CVN0); test: MetRS (C. parvum) enzyme inhibition; type: biochemical; conditions: read-out: (C) MetRS (C. parvum) IC50
[9] = tested on: C. parvum; test: C. parvum growth inhibition; type: cell-based, Cryptosporidium parvum; conditions: read-out: (J) C. parvum EC50

Sequence of MetRS (C. parvum) (Q5CVN0 entry or part of it): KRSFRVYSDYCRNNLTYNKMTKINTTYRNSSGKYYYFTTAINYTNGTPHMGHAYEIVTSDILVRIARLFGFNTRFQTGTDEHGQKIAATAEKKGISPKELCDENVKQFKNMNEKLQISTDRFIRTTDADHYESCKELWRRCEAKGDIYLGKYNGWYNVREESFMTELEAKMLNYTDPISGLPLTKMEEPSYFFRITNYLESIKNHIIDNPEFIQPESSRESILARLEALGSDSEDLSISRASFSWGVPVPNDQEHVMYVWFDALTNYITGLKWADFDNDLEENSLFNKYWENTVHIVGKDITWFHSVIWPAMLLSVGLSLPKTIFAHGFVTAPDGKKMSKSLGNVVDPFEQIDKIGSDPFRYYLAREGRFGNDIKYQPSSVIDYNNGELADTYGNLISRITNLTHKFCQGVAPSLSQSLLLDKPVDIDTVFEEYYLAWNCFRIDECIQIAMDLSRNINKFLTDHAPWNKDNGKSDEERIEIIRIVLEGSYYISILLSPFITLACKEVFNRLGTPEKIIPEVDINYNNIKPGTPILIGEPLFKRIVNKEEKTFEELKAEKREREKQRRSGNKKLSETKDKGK
Sequence of recombinant S. aureus MetRS enzyme (A0A0H2XID2 2-657): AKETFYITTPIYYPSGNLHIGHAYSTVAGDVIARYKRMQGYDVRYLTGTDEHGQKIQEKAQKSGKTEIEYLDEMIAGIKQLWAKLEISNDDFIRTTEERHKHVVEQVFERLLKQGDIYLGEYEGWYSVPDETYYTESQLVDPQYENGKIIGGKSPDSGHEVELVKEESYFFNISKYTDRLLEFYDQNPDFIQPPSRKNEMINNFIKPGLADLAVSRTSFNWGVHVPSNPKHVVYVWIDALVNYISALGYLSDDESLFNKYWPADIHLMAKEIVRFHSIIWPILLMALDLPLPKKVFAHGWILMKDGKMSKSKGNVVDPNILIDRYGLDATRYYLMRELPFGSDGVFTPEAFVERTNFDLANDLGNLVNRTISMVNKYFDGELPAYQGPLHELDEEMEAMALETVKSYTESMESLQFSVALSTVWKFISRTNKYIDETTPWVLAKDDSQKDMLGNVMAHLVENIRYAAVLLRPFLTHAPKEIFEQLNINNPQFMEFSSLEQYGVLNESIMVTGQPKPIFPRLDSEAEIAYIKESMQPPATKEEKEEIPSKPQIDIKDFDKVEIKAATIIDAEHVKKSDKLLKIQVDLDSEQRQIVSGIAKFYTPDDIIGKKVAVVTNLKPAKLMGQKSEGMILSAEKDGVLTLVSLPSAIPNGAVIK

O=c1n(Cc2nc3ccc(Cl)nc3[nH]2)cc(Cc2ccc(Cl)cc2Cl)n1CC(F)F [Compound 2138, 1-({5-chloro-1H-imidazo[4,5-b]pyridin-2-yl}methyl)-4-[(2,4-dichlorophenyl)-methyl]-3-(2,2-difluoroethyl)-2,3-dihydro-1H-imidazol-2-one]
IC50 [1]: < 0.04 µM | EC50 ([2]; Trypanosoma cruzi): 0.0267 µM | EC50 [2]: 0.0531 µM | MIC [3]: 0.062 mg/L (≈ 0.131 µM) | MIC [4]: 0.553 mg/L (≈ 1.17 µM) | EC50 ([5]; Trypanosoma brucei): 0.00246 µM | EC50 [5]: 0.00348 µM | MIC [6]: 0.596 mg/L (≈ 1.26 µM) | IC50 [7]: < 0.025 µM | IC50 [8]: < 0.04 µM

COc1ccc(-c2cn(Cc3ccccc3)c3c2CN(Cc2nc4nc(Cl)ccc4[nH]2)CC3)c(Cl)c1 [Compound 2176, 2-((1-benzyl-3-(2-chloro-4-methoxyphenyl)-6,7-dihydro-1H-pyrrolo[3,2-c]pyridin-5(4H)-yl)methyl)-5-chloro-1H-imidazo[4,5-b]pyridine]
IC50 [1]: < 0.04 µM | EC50 ([2]; Trypanosoma cruzi): 0.283 µM | MIC [3]: > 0.5 mg/L | MIC [4]: > 2.5 mg/L | EC50 ([5]; Trypanosoma brucei): 0.0406 µM | IC50 [7]: < 0.025 µM | IC50 [8]: 0.08 µM

COc1ccc(-c2ccc3c(=O)ccn(Cc4nc5nc(F)ccc5[nH]4)c3c2)c(Cl)c1 [Compound 2168, 7-(2-chloro-4-methoxyphenyl)-1-((5-fluoro-1H-imidazo[4,5-b]pyridin-2-yl)methyl)quinolin-4(1H)-one]
IC50 [1]: < 0.04 µM | EC50 ([2]; Trypanosoma cruzi): 6.15 µM | MIC [3]: > 1.25 mg/L | EC50 ([5]; Trypanosoma brucei): > 0.2 µM | MIC [6]: > 2.5 mg/L | IC50 [7]: < 0.025 µM | IC50 [8]: < 0.04 µM

O=c1n(Cc2nc3nc(F)ccc3[nH]2)cc(Cc2ccc(Cl)cc2Cl)n1CC(F)F [Compound 2139, 4-[(2,4-dichlorophenyl)methyl]-3-(2,2-difluoroethyl)-1-({5-fluoro-1H-imidazo[4,5-b]pyridin-2-yl}methyl)-2,3-dihydro-1H-imidazol-2-one]
IC50 [1]: < 0.04 µM | MIC [3]: 0.0776 mg/L (≈ 0.17 µM) | MIC [4]: 0.307 mg/L (≈ 0.673 µM) | EC50 ([5]; Trypanosoma brucei): 0.00321 µM | EC50 ([9]; Cryptosporidium parvum): 0.193 µM | IC50 [7]: < 0.025 µM | IC50 [8]: < 0.04 µM

COc1ccc(-c2cnc(N3CCN(C(C)=O)CC3)c3nc(Cc4nc5nc(Cl)ccc5[nH]4)cn23)c(Cl)c1 [Compound 2185, 1-{4-[2-({5-chloro-1H-imidazo[4,5-b]pyridin-2-yl}methyl)-5-(2-chloro-4-methoxyphenyl)imidazo[1,2-a]pyrazin-8-yl]piperazin-1-yl}ethan-1-one]
IC50 [1]: < 0.04 µM | EC50 ([2]; Trypanosoma cruzi): 0.0716 µM | EC50 [2]: 0.0909 µM | MIC [3]: 0.358 mg/L (≈ 0.649 µM) | MIC [4]: 1.2 mg/L (≈ 2.18 µM) | EC50 ([9]; Cryptosporidium parvum): 0.243 µM | IC50 [7]: < 0.025 µM | IC50 [8]: < 0.04 µM

COCCCn1c(Cc2ccc(Cl)cc2Cl)cn(Cc2nc3ccc(F)nc3[nH]2)c1=O [Compound 2082, 4-[(2,4-dichlorophenyl)methyl]-1-({5-fluoro-1H-imidazo[4,5-b]pyridin-2-yl}methyl)-3-(3-methoxypropyl)-2,3-dihydro-1H-imidazol-2-one]
IC50 [1]: < 0.04 µM | EC50 ([2]; Trypanosoma cruzi): 0.145 µM | MIC [3]: 0.18 mg/L (≈ 0.388 µM) | MIC [4]: 1.54 mg/L (≈ 3.32 µM) | MIC [6]: 0.238 mg/L (≈ 0.513 µM) | IC50 [7]: < 0.025 µM | IC50 [8]: < 0.04 µM

COCCn1c(Cc2ccc(Cl)cc2Cl)cn(Cc2nc3ccc(F)nc3[nH]2)c1=O [Compound 2077, 4-[(2,4-dichlorophenyl)methyl]-1-({5-fluoro-1H-imidazo[4,5-b]pyridin-2-yl}methyl)-3-(2-methoxyethyl)-2,3-dihydro-1H-imidazol-2-one]
IC50 [1]: < 0.04 µM | EC50 ([2]; Trypanosoma cruzi): 0.215 µM | MIC [3]: 0.818 mg/L (≈ 1.82 µM) | MIC [4]: > 2.5 mg/L | EC50 ([9]; Cryptosporidium parvum): 0.475 µM | EC50 [9]: 0.283 µM | IC50 [7]: < 0.025 µM | IC50 [8]: < 0.04 µM

Fc1ccc2[nH]c(Cc3cn4c(-c5ccc(Cl)cc5Cl)cccc4n3)nc2n1 [Compound 2135, 5-(2,4-dichlorophenyl)-2-({5-fluoro-1H-imidazo[4,5-b]pyridin-2-yl}methyl)imidazo[1,2-a]pyridine]
IC50 [1]: < 0.04 µM | EC50 ([2]; Trypanosoma cruzi): 2.16 µM | MIC [3]: 0.592 mg/L (≈ 1.44 µM) | EC50 ([5]; Trypanosoma brucei): 0.0993 µM | MIC [6]: 1.33 mg/L (≈ 3.23 µM) | IC50 [7]: < 0.025 µM | IC50 [8]: 0.0567 µM

CCCn1c(Cc2ccc(Cl)cc2Cl)cn(Cc2nc3ccc(Cl)nc3[nH]2)c1=O [Compound 2079, 1-({5-chloro-1H-imidazo[4,5-b]pyridin-2-yl}methyl)-4-[(2,4-dichlorophenyl)-methyl]-3-propyl-2,3-dihydro-1H-imidazol-2-one]
IC50 [1]: < 0.04 µM | EC50 ([2]; Trypanosoma cruzi): 0.026 µM | EC50 [2]: 0.0225 µM | (F) S. aureus (ATCC 29213) MIC [3]: 0.0391 mg/L | MIC [3]: 0.044 mg/L (≈ 0.0976 µM) | MIC [4]: > 2.5 mg/L | EC50 ([5]; Trypanosoma brucei): < 0.00091 µM | EC50 [5]: 0.00179 µM | IC50 [7]: < 0.025 µM | IC50 [8]: < 0.04 µM

O=c1n(Cc2nc3ccc(F)nc3[nH]2)cc(Cc2ccc(Cl)cc2Cl)n1CC1CCOCC1 [Compound 2087, 4-[(2,4-dichlorophenyl)methyl]-1-({5-fluoro-1H-imidazo[4,5-b]pyridin-2-yl}methyl)-3-[(oxan-4-yl)methyl]-2,3-dihydro-1H-imidazol-2-one]
IC50 [1]: < 0.04 µM | EC50 ([2]; Trypanosoma cruzi): 0.359 µM | MIC [3]: 0.254 mg/L (≈ 0.518 µM) | MIC [4]: 1.67 mg/L (≈ 3.41 µM) | IC50 [7]: < 0.025 µM | IC50 [8]: < 0.04 µM

COc1ccc(-c2cccc3nc(Cc4nc5nc(C(F)(F)F)ccc5[nH]4)cn23)c(Cl)c1 [Compound 2166, 5-(2-chloro-4-methoxyphenyl)-2-{[5-(trifluoromethyl)-1H-imidazo[4,5-b]pyridin-2-yl]methyl}imidazo[1,2-a]pyridine]
IC50 [1]: < 0.04 µM | EC50 ([2]; Trypanosoma cruzi): 0.596 µM | MIC [3]: > 1.25 mg/L | EC50 ([5]; Trypanosoma brucei): > 0.2 µM | MIC [6]: > 2.5 mg/L | IC50 [7]: 0.177 µM | IC50 [8]: > 1 µM

COc1cc(-c2cccc3nc(Cc4nc5nc(Cl)ccc5[nH]4)cn23)c(Cl)cc1Cl [Compound 2128, 2-({5-chloro-1H-imidazo[4,5-b]pyridin-2-yl}methyl)-5-(2,4-dichloro-5-methoxyphenyl)imidazo[1,2-a]pyridine]
IC50 [1]: < 0.04 µM | EC50 ([2]; Trypanosoma cruzi): 0.00588 µM | EC50 [2]: 0.0108 µM | EC50 ([5]; Trypanosoma brucei): 0.00362 µM | EC50 [5]: 0.0034 µM | MIC [6]: 0.24 mg/L (≈ 0.523 µM) | EC50 ([9]; Cryptosporidium parvum): 1.68 µM | IC50 [7]: < 0.025 µM | IC50 [8]: < 0.04 µM

CCn1c(Cc2ccc(Cl)cc2Cl)cn(Cc2nc3ccc(Br)nc3[nH]2)c1=O [Compound 2091, 1-({5-bromo-1H-imidazo[4,5-b]pyridin-2-yl}methyl)-4-[(2,4-dichlorophenyl)-methyl]-3-ethyl-2,3-dihydro-1H-imidazol-2-one]
IC50 [1]: < 0.04 µM | EC50 ([2]; Trypanosoma cruzi): 0.059 µM | EC50 [2]: 0.0406 µM | MIC [3]: 0.199 mg/L (≈ 0.414 µM) | MIC [4]: > 2.5 mg/L | EC50 ([5]; Trypanosoma brucei): 0.0028 µM | EC50 ([9]; Cryptosporidium parvum): 0.598 µM | IC50 [7]: < 0.025 µM | IC50 [8]: < 0.04 µM
